Source: patent US20190152992A1, “BENZODIOXANE DERIVATIVES AND THEIR PHARMACEUTICAL USE” (Orion Corporation, priority 2016, published 2019)
Where a name gives a salt, the structure may show the parent alone.

Tests used:
human alpha2A receptors = target: T1, human alpha2A receptors (Homo sapiens, UniProt P08913); assay: cell-based
T1 sequence (P08913 1-465): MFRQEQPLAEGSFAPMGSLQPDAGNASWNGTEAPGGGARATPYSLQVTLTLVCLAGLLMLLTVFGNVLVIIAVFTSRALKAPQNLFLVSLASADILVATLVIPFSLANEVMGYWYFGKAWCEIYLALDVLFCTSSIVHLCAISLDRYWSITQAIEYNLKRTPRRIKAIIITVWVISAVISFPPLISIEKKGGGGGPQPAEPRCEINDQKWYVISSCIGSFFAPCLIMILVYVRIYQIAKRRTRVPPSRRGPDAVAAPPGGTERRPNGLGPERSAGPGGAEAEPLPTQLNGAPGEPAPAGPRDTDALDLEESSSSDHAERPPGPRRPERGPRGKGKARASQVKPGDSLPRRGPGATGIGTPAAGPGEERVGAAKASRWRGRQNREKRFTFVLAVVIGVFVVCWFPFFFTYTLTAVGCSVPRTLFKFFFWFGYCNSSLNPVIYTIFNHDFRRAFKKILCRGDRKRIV

human alpha2C receptors = target: T2, human alpha2C receptors (Homo sapiens, UniProt P18825); assay: Determination of alpha2C antagonistic activity in vitro (FLIPR calcium assay); settings: for Kb: Alpha 2C Adrenaline Kb, Kb calculated from IC50 with the Cheng-Prusoff equation, adrenaline as agonist, CHO cells, human alpha2C
T2 sequence (P18825 1-462): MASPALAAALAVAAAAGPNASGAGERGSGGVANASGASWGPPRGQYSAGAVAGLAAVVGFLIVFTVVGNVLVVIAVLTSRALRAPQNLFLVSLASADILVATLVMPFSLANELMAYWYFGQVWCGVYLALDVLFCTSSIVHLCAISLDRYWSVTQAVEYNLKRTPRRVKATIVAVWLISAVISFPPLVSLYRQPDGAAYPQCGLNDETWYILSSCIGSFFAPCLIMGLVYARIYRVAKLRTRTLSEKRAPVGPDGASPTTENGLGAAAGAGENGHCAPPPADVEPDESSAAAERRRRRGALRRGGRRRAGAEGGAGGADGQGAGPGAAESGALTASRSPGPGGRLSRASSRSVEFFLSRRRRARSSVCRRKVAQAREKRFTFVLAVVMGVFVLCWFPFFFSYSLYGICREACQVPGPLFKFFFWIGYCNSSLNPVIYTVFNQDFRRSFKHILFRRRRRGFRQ

Row | SMILES | IC50 (human alpha2A receptors) [nM] | Kb (human alpha2A receptors) [nM] | IC50 (human alpha2C receptors) [nM] | Kb (human alpha2C receptors) [nM]
1 | O=C1c2ccc(Cl)cc2CN1[C@H]1CCCN(C[C@H]2COc3ccccc3O2)C1 [example 60, 5-Chloro-2-((S)-1-(((S)-2,3-dihydrobenzo[b][1,4]dioxin-2-yl)methyl)piperidin-3-yl)isoindolin-1-one] | > 10000 | > 449 | < 0.1 | < 0.01
2 | O=C1c2ccccc2C(=O)N1[C@H]1CCCN(C[C@H]2COc3ccccc3O2)C1 [example 61, 2-((S)-1-(((S)-2,3-Dihydrobenzo[b][1,4]dioxin-2-yl)methyl)piperidin-3-yl)isoindoline-1,3-dione] | > 10000 | > 449 | 0.062 | 0.006
3 | O=C1c2ccc(F)cc2C(=O)N1[C@H]1CCCN(C[C@H]2COc3ccccc3O2)C1 [example 62, 2-((S)-1-(((S)-2,3-Dihydrobenzo[b][1,4]dioxin-2-yl)methyl)piperidin-3-yl)-5-fluoroisoindoline-1,3-dione] | > 10000 | > 449 | < 0.1 | < 0.01
4 | O=C1c2cccc(F)c2C(=O)N1[C@H]1CCCN(C[C@H]2COc3ccccc3O2)C1 [example 63, 2-((S)-1-(((S)-2,3-Dihydrobenzo[b][1,4]dioxin-2-yl)methyl)piperidin-3-yl)-4-fluoroisoindoline-1,3-dione hydrochloride] | > 10000 | > 449 | < 0.1 | < 0.01
5 | O=C1c2cccc(Cl)c2C(=O)N1[C@H]1CCCN(C[C@H]2COc3ccccc3O2)C1 [example 64, 4-Chloro-2-((S)-1-(((S)-2,3-dihydrobenzo[b][1,4]dioxin-2-yl)methyl)piperidin-3-yl)isoindoline-1,3-dione hydrochloride] | > 10000 | > 449 | 43.5 | 4.38
6 | COc1cccc2c1C(=O)N([C@H]1CCCN(C[C@H]3COc4ccccc4O3)C1)C2=O [example 65, 2-((S)-1-(((S)-2,3-Dihydrobenzo[b][1,4]dioxin-2-yl)methyl)piperidin-3-yl)-4-methoxyisoindoline-1,3-dione] | > 10000 | > 449 | < 0.1 | < 0.01
7 | COc1ccc2c(c1OC)C(=O)N([C@H]1CCCN(C[C@H]3COc4ccccc4O3)C1)C2=O [example 66, 2-((S)-1-(((S)-2,3-Dihydrobenzo[b][1,4]dioxin-2-yl)methyl)piperidin-3-yl)-4,5-dimethoxyisoindoline-1,3-dione hydrochloride] | > 10000 | > 449 | < 0.01 | < 0.001
8 | N#Cc1ccc2c(c1)CN([C@H]1CCCN(C[C@H]3COc4ccccc4O3)C1)C2=O [example 67, 2-((S)-1-(((S)-2,3-Dihydrobenzo[b][1,4]dioxin-2-yl)methyl)piperidin-3-yl)-1-oxoisoindoline-5-carbonitrile] | > 10000 | > 449 | 1.3 | 0.132
9 | COc1cc2c(cc1OC)C(=O)N([C@H]1CCCN(C[C@H]3COc4ccccc4O3)C1)C2 [example 68, 2-((S)-1-(((S)-2,3-Dihydrobenzo[b][1,4]dioxin-2-yl)methyl)piperidin-3-yl)-5,6-dimethoxyisoindolin-1-one] | > 10000 | > 449 | 2.79 | 0.282
10 | COc1ccc2c(c1)CN([C@H]1CCCN(C[C@H]3COc4ccccc4O3)C1)C2=O [example 69, 2-((S)-1-(((S)-2,3-Dihydrobenzo[b][1,4]dioxin-2-yl)methyl)piperidin-3-yl)-5-methoxyisoindolin-1-one] | > 10000 | > 449 | 0.89 | 0.09
11 | COc1ccc2c(c1)C(=O)N([C@H]1CCCN(C[C@H]3COc4ccccc4O3)C1)C2 [example 70, 2-((S)-1-(((S)-2,3-Dihydrobenzo[b][1,4]dioxin-2-yl)methyl)piperidin-3-yl)-6-methoxyisoindolin-1-one] | > 10000 | > 449 | 0.905 | 0.091
12 | CC(=O)NCc1ccc2c(c1)CN([C@H]1CCCN(C[C@H]3COc4ccccc4O3)C1)C2=O [example 71, N-((2-((S)-1-(((S)-2,3-Dihydrobenzo[b][1,4]dioxin-2-yl)methyl)piperidin-3-yl)-1-oxoisoindolin-5-yl)methyl)acetamide] | > 10000 | > 449 | 0.12 | 0.012
13 | O=c1[nH]c2ccccc2c(=O)n1[C@H]1CCCN(C[C@H]2COc3ccccc3O2)C1 [example 72, 3-((S)-1-(((S)-2,3-Dihydrobenzo[b][1,4]dioxin-2-yl)methyl)-piperidin-3-yl)quinazoline-2,4(1H,3H)-dione] | > 10000 | > 449 | 0.124 | 0.012
14 | CCC1(c2ccccc2)C(=O)N([C@H]2CCCN(C[C@H]3COc4ccccc4O3)C2)C(=O)N1C (stereo partly drawn) [example 73, 3-((S)-1-(((S)-2,3-Dihydrobenzo[b][1,4]dioxin-2-yl)methyl)-piperidin-3-yl)-5-ethyl-1-methyl-5-phenylimidazolidine-2,4-dione] | 185 | 8 | < 0.1 | < 0.01
15 | CC1(c2ccccc2)NC(=O)N([C@H]2CCCN(C[C@H]3COc4ccccc4O3)C2)C1=O (stereo partly drawn) [example 74, 3-((S)-1-(((S)-2,3-Dihydrobenzo[b][1,4]dioxin-2-yl)methyl)piperidin-3-yl)-5-methyl-5-phenylimidazolidine-2,4-dione] | 13 | 1 | < 0.1 | < 0.01
16 | O=C1c2cccnc2C(=O)N1[C@H]1CCCN(C[C@H]2COc3ccccc3O2)C1 [example 75, 6-((S)-1-(((S)-2,3-Dihydrobenzo[b][1,4]dioxin-2-yl)methyl)piperidin-3-yl)-5H-pyrrolo[3,4-b]pyridine-5,7(6H)-dione] | > 10000 | > 449 | 0.95 | 0.097
17 | O=C1c2ccncc2CN1[C@H]1CCCN(C[C@H]2COc3ccccc3O2)C1 [example 76, 2-((S)-1-(((S)-2,3-Dihydrobenzo[b][1,4]dioxin-2-yl)methyl)piperidin-3-yl)-2,3-dihydro-1H-pyrrolo[3,4-c]pyridin-1-one] | > 10000 | > 449 | 1770 | 178
18 | O=C1c2ncccc2CN1[C@H]1CCCN(C[C@H]2COc3ccccc3O2)C1 [example 77, 6-((S)-1-(((S)-2,3-Dihydrobenzo[b][1,4]dioxin-2-yl)methyl)piperidin-3-yl)-5H-pyrrolo[3,4-b]pyridin-7(6H)-one] | > 10000 | > 449 | 10.5 | 1.05
19 | O=C1c2ncncc2CN1[C@H]1CCCN(C[C@H]2COc3ccccc3O2)C1 [example 78, 6-((S)-1-(((S)-2,3-Dihydrobenzo[b][1,4]dioxin-2-yl)methyl)piperidin-3-yl)-5H-pyrrolo[3,4-d]pyrimidin-7(6H)-one] | > 10000 | > 449 | 256 | 25.8
20 | O=C1c2scnc2CN1[C@H]1CCCN(C[C@H]2COc3ccccc3O2)C1 [example 79, 5-((S)-1-(((S)-2,3-Dihydrobenzo[b][1,4]dioxin-2-yl)methyl)piperidin-3-yl)-4H-pyrrolo[3,4-d]thiazol-6(5H)-one] | > 10000 | > 449 | 5.4 | 0.544
